ChEMBL document CHEMBL1240367, “Therapy of murine pulmonary aspergillosis with antibody-alliinase conjugates and alliin” (2010)
In brackets after ≈: the same amount, converted by molar mass.

Key:
Type in all cases: functional
Aspergillus fumigatus [1] = test: Antifungal activity against Aspergillus fumigatus infected ICR mouse assessed as median survival time at 750 ug, it administered 1 hr post infection repeated on days 4, 6 and 9
Aspergillus fumigatus [2] = test: Antifungal activity against Aspergillus fumigatus infected ICR mouse assessed as median survival time at 1 mg/kg, it administered 1 hr post infection repeated on days 4, 6 and 9; conditions: route endotracheal
Aspergillus fumigatus [3] = test: Antifungal activity against swollen Aspergillus fumigatus
Aspergillus fumigatus [4] = test: Antifungal activity against resting Aspergillus fumigatus
Aspergillus fumigatus [5] = test: Antifungal activity against Aspergillus fumigatus hyphae

C=CC[S+]([O-])C[C@H](N)C(=O)O (stereo not given in full) [ALLIIN]
MST (Aspergillus fumigatus [1]): 7 days

C[C@@H]1[C@H](O)[C@@H](C)/C=C/C=C/C=C/C=C/C=C/C=C/C=C/[C@H](O[C@@H]2O[C@H](C)[C@@H](O)[C@H](N)[C@@H]2O)C[C@@H]2O[C@](O)(C[C@@H](O)C[C@@H](O)[C@H](O)CC[C@@H](O)C[C@@H](O)CC(=O)O[C@H]1C)C[C@H](O)[C@H]2C(=O)O [AMPHOTERICIN B]
MST (Aspergillus fumigatus [2]): 18 days

C=CCS[S+]([O-])CC=C (stereo not given) [ALLICIN]
MFC (Aspergillus fumigatus [3]): 7.5 µg/mL (≈ 46.2 µM)
MFC (Aspergillus fumigatus [4]): 15 µg/mL (≈ 92.4 µM)
MIC (Aspergillus fumigatus [5]): 30 µg/mL (≈ 185 µM)
